Assay results published in patent publication US20070254907A1, “COMPOSITIONS AND METHODS FOR CONTROLLING INFESTATION” (HATCHTECH PTY LTD, priority 2003, published 2007).
“And” between values parts separate entries of the source, which are not always exact repeats. Equal entries are not always repeated.

Tests used:
[1] = test system: lice eggs; experiment: Standard lice egg-hatching assay, commercial head lice products with rinse; format: in vivo; conditions: for H (number of eggs successfully hatched) / Ph (number of eggs partly hatched): per replicate, products per manufacturer's recommendations, 1,10-phenanthroline 10 mM, rinsed
Experimental: (§1) These three products were tested according to manufacturer's recommendations. Groups of eggs (24 hours old) were treated with the different products according to manufacturer's recommendations for the appropriate period of time (5-10 minutes) followed by a rinse for 1-2 minutes in 32° C. water. A positive controls (10 mM 1,10-phenanthroline) and two negative controls (no treatment and 20% Methanol) were also incorporated. Post exposure to the different products, the eggs were rinsed with warm water at 32° C. before being blotted dry on tissue paper and placed at 32° C., 70% RH and left to hatch. A second group of eggs, (48 hours old) were treated as previously described and also left to hatch. This process was repeated at 24 hour intervals on head lice eggs up to 120 hours post laying. This method of assaying inhibitors more closely mirrors the field situation where lice eggs will be at various stages of development on the head and permits the inhibitory effects to be observed on these different stages of the parasite.
as §1, with “two” for “three”, “Two” for “A positive controls (10 mM 1,10-phenanthroline) and two”, “ethanol)” for “Methanol)”, “were” for “were rinsed with warm water at 32° C. before being”

[2] = test system: proteases in egg shell washings (ESW) of lice eggs; experiment: Gelatin substrate SDS-PAGE of lice egg shell washings (ESW) incubated with protease inhibitors; format: biochemical, Pediculus humanus humanus
Experimental: Within 12 hours of hatching 50 body lice eggs (Pediculus humanus humanus) were removed from the hair and placed in a 1 mL eppendorf tube. 20 μL of distilled water was added to the unhatched eggs and the preparation incubated for 30 minutes at 32° C. The 20 μL was recovered, freeze dried and stored at −70° C. This sample was referred to as sample 1. A number of other samples were also collected as described. Sample 2 was collected by removing the unhatched louse eggs from four hairs that were approximately 3 cm long, cutting the hair into 0.5 cm lengths, and placing them into a microfuge tube containing 20 μl of distilled water and incubating at 32° C. for 30 minutes. Sample 3 was collected as for sample 2, but the hair was placed in a tube containing 10 mL of 1% sodium hypochlorite for 1 minute followed by five 1 minute washes in 25 mL of distilled water to remove the sodium hypochlorite before being incubated in a microfuge tube containing 20 μl of distilled water and incubated as for Sample 2. Sample 4 was collected from unhatched eggs which were removed from the hair and washed with 1% sodium hypochlorite and incubated in 20 μl of distilled water in the same manner as the hair in Sample 3. Finally, Sample 5 was collected from eggs that were within 24 hrs of hatching which were washed with 1% sodium hypochlorite, then returned to the incubator at 32° C. until they hatched, the empty egg shells collected 0-2 hrs after egg-hatching, placed in a 1 mL microfuge tube containing 20 μl of distilled water and incubated as for Samples 1-4. For all samples 1-5 the 20 μl of fluid was recovered, freeze-dried and stored at −70° C. The washings recovered from these freshly hatched egg shells are referred to as egg-shell-washings (ESWs). In order to look for the presence of proteases present in these different samples, the freeze-dried samples were resuspended in 15 μL of non-reducing SDS sample buffer, centrifuged at 10,000 g for 2 minutes and the entire 15 μL loaded on to 10% gelatine substrate SDS-PAGE gels. Gels were run at 4° C. for 10 minutes at 10 mA followed by a further 25 minutes at 15 mA per gel. They were then incubated for 2×20 minutes in a 2.5% Triton-X 100 solution followed by a three hour incubation in 0.1M Tris/HCl containing 1 mM CaCl2 pH 8.0. Activity was detected as clear areas on the gel the result of protease activity degrading the gelatine within the gel.
Protease activity in the ESWs from louse eggs was also examined using two-dimensional gel electrophoresis. It was necessary to collect large numbers of freshly hatched egg shells. Following egglaying onto pieces of cloth, adult female lice were removed and the cloth with the eggs washed with 1% sodium hypochlorite as for collection of ESWs. The eggs were then returned to the incubator and permitted to hatch. Typically 100 to 500 hatched egg shells were collected (0-2 hours post hatching), placed in a microfuge tube containing 200 μl of distilled water, incubated and sample treated as described above. For analysis, ESWs were resuspended in rehydration buffer (8 M Urea, 2% 3-[(3-cholamidopropyl) dimethylammonio]-1-propanesulfonate 2% Immobilised pH gradient buffer 3-10 (Amersham Phamacia Biotech, Uppsala, Sweden)) and used to rehydrate 7 cm Immobiline Dry strips pH 3-10 (Amersham Bioscience) overnight. Strips were transferred to the Multiphor II (Pharmacia, Sweden) apparatus, electrophoresed in the first dimension at 200 V for 1 min, increasing to 3,500 V over the next 90 min followed by 65 min at 3,500 V, equilibrated (6 M urea, 30% glycerol, 50 mM Tris pH 8.8 and 2% SDS) and then run on a 10% SDS-PAGE gel containing 0.1% gelatin for the second dimension. The gel was then run and developed as previously described.
10% SDS-PAGE gelatine substrate gels were loaded with freeze dried egg shell washings from 100 lice eggs that had been resuspended in 50 μL of non-reducing sample buffer with samples run at 10 μL per lane. […]

[3] = test system: third stage H. contortus larvae; experiment: Survival and L3 to L4 moulting of third stage larvae; format: in vivo, Haemonchus contortus
Experimental: Third stage H. contortus larvae were exposed to varying concentrations of 5,5′-dimethyl-2,2′-dipyridyl and the effects on moulting from L3 to L4 examined. The larvae were either exsheathed (their L2 sheath was removed chemically) or unexsheathed (their L2 sheaths were intact). The larvae were exposed to varying concentrations of 5,5′-dimethyl-2,2′-dipyridyl added to their culture media of DMEM and the effects on larval survival monitored over time. Following a 30 minute incubation at 37° C., greater than 90% of the exsheathed larvae exposed to 1 and 0.5 mM of the compound appeared dead. […] By day six post exposure greater than 90% of the larvae appeared to have died in the treatment groups while the control larvae appeared healthy.

| SMILES | ovicidal activity across the different stages of lice egg hatching ([1]; 24-120 hr post egg laying) | H (number of eggs successfully hatched) ([1]; treated 24 hr post egg laying) | Ph (number of eggs partly hatched) ([1]; treated 24 hr post egg laying) | H (number of eggs successfully hatched) ([1]; treated 48 hr post egg laying) | Ph (number of eggs partly hatched) ([1]; treated 48 hr post egg laying) | H (number of eggs successfully hatched) ([1]; treated 72 hr post egg laying) | Ph (number of eggs partly hatched) ([1]; treated 72 hr post egg laying) | H (number of eggs successfully hatched) ([1]; treated 96 hr post egg laying) | Ph (number of eggs partly hatched) ([1]; treated 96 hr post egg laying) | H (number of eggs successfully hatched) ([1]; treated 120 hr post egg laying) | Ph (number of eggs partly hatched) ([1]; treated 120 hr post egg laying) | protease activity of ESW, two dimensional gel electrophoresis ([2]; gel incubated with 10 mM inhibitor) | protease activity of ESW on gelatin SDS-PAGE compared to untreated controls ([2]; gel strips incubated with inhibitor: PMSF 5 mM, 1,10-phenanthroline 10 mM, EDTA 10 mM, pepstatin 5 μM, E-64 10 μM) | appearance of unexsheathed larvae ([3]; 10 μM, up to 6 days post exposure) | exsheathed larvae that appeared dead ([3]; 1 and 0.5 mM in DMEM, 30 minute incubation at 37° C.) | unexsheathed larvae that appeared to have died ([3]; day six post exposure, treatment groups) | effects on unexsheathed larvae compared to control larvae ([3]; up to 3 days post exposure) |
| --- | --- | --- | --- | --- | --- | --- | --- | --- | --- | --- | --- | --- | --- | --- | --- | --- | --- |
| c1cnc2c(c1)ccc1cccnc12 [1,10-phenanthroline, reference compound] | highly effective at inhibiting lice egg hatching | 0 | 0 | 0 | 0 | 0 | 0 | 0 | 0 | 0 and 4 and 1 | 0 | general reduction in protease activity in the 25-30 kDa region and a clear reduction in the proteases present around the 50 kDa region and above 75 kDa | reduction in protease activity |  |  |  |  |
| Cc1ccc(-c2ccc(C)cn2)nc1 [5,5′-dimethyl-2,2′-dipyridyl] |  |  |  |  |  |  |  |  |  |  |  |  |  | larvae appeared normal | greater than 90% | greater than 90% | no adverse effects were observed |
